# Assay results reported in US12583938B2, “Protein biomarker and uses thereof” (Daiichi Sankyo Co., Ltd., priority 2013, dated 2026).
# Test system: Stage IIIb/IV NSCLC
# Method: In both portions of the study, subjects received 150 mg of erlotinib orally once daily. […] Tumors were to be assessed every 6 weeks (±3 days) up to the first 24 weeks of the study, then every 12 weeks (±7 days) independent of treatment cycle.
# An “HRG high” subject was defined as a subject with observed soluble HRG concentration of higher than 980 pg/mL, the Quartile 3 of the sample set. Soluble HRC concentration was measured by the improved ELISA method disclosed herein.
# At the point of primary analysis, the treatment assignment for all subjects was unblinded to designated study personnel for analysis after data were reconciled and cleaned, and a snapshot of the clean database was created. To minimize potential bias, individual treatment assignment was not divulged to subjects or Investigators until study closure.
# All efficacy analyses were performed on the full analysis set, which includes all subjects in the randomized analysis set who received at least one dose of randomized study medication. The primary efficacy endpoint was PFS. PFS is defined as the time from the date of randomization to the earlier of the dates of the first objective documentation of radiographic disease progression or death due to any cause. A subject who was alive with no objective documentation of (radiographic) disease progression by the data cut-off date was to be censored at the date of the last evaluable tumor assessment. The key secondary efficacy endpoint, overall survival, was defined as the time from the date of randomization to death due to any cause and was analyzed in the same manner as the primary efficacy endpoint PFS.
# Kaplan-Meier curves were generated for PFS and used to calculate medians and 95% CIs for each treatment group.
# The stratification factors included histology (Adenocarcinoma vs Non-Adenocarcinoma) and best response to prior therapy (CR/PR/SD vs PD). […] Cox's proportional hazards model with the same stratification factors used for the stratified log-rank test.
# Unless otherwise indicated, tog-rank p-values and HRs for PFS and OS were based on the primary analysis adjusted for the stratification factors at randomization as described above.
# [1] = Placebo + erlotinib (N = 71), Enrolled/Randomized Analysis Set
# [2] = Placebo + erlotinib (N = 71), Full Analysis Set
compound,measurement,setting,value
"C#Cc1cccc(Nc2ncnc3cc(OCCOC)c(OCCOC)cc23)c1 [erlotinib, reference compound]",On-Study Death,[1],13 subjects
same,Primary Cause of On-Study Death: Adverse Event,[1],5 subjects
same,Primary Cause of On-Study Death: Disease Progression,[1],8 subjects
same,Primary Reason for Discontinuing Study Treatment: Death,[1],4 subjects
same,Primary Reason for Discontinuing Study Treatment: Progressive Disease (Radiographic Progression),[1],50 subjects
same,OS: Subjects (%) with events,[2],48 (67.6%) subjects (%)
same,OS: Subjects (%) without events (censored),[2],23 (32.4%) subjects (%)
same,PFS: Subjects (%) with events,[2],59 (83.1%) subjects (%)
same,PFS: Subjects (%) without events (censored),[2],12 (16.9%) subjects (%)
same,"Progression-Free Survival, Time to event, Median","Placebo + erlotinib (N = 71), Full Analysis Set, Kaplan-Meier Estimate",1.6 months
same,"Overall Survival, Time to event, Median","Placebo + erlotinib (N = 71), Full Analysis Set, Kaplan-Meier Estimate, preliminary",7.2 months
same,number of subjects with the response being CR/PR,placebo + erlotinib,4 (5.6%) subjects (%)
